{"source": "paper PMC9170688", "about": "“Gametocyte-specific and all-blood-stage transmission-blocking chemotypes discovered from high throughput screening on Plasmodium falciparum gametocytes” (Communications Biology, 2022)", "key": {"[1]": {"test_system": "P. falciparum NF54 hsp86-PpyRE13 gametocytes", "test": "P. falciparum gametocyte luminescence assay (PfLuc), line NF54 hsp86-PpyRE13", "assay_type": "cell-based, Plasmodium falciparum", "conditions": "gametocytes, line NF54 HSP86; read-out: Pf Gametocytes NF54 HSP86 (IC50 nM)", "experimental": "(§1) To exclude false positive compounds that may interfere with the click beetle CBG99 luciferase signal and to confirm the activity on gametocytes produced by other P. falciparum lines, we tested the above 638 compounds at a single concentration of 10 µM on gametocytes from two NF54 strain derived lines: pfs16-GFP-PyLUC (Photinus pyralis luciferase under the same pfs16 promoter)[14],[16],[27] and hsp86-PpyRE13 that was generated for this work to express the mutated Photinus pyralis PpyRE13 luciferase in gametocytes under the promoter of the pfhsp86 gene.\n(§2) With the selected 84 compounds, the subsequent step aimed at determining the gametocyte inhibition potency and the parasite stage selectivity between the gametocytes and the asexual stages in the NF54 hsp86-PpyRE13. […] Similar data were obtained considering the gametocyte IC50 values measured in the NF54 pfs16-GFP-PyLUC strain (see Supplementary Data 2).\n(§3) Parasite gametocyte luminescence assays were performed in 384-well plates (Thermo, 4332, USA) by infected red blood cells seeded at 40 µL/well at a haematocrit of 0.625% for the strain 3D7elo1-pfs16-CBG99, 1.875% for both strains NF54 hsp86-PpyRE13 and NF54 pfs16-GFP-PyLUC. Assay were performed in the medium: 10.44 g/L RPMI 1640 Medium (Gibco, 51800043), 5.95 g/L HEPES (Sigma, H4034), 50 mg/L Hypoxantine (Sigma, 56700), 10% heat inactivated human serum, 10 ml of Neomycin solution (Sigma, N1142) and 2.1 g/L NaHCO3 (Sigma, 144-55-8). Compounds or DMSO as control were pre dispensed on plates, from 10 mM DMSO stock solutions, via an acoustic droplet ejection device (ATS-100, EDC Biosystems) to achieve the final desired concentration. Assay plates were incubated for 48 h at 37 °C in 4% CO2, 3% O2, and 93% N2 modified atmosphere. After incubation, 20 µL/well of a solution of luciferin (Regis, 1-360242-200) potassium/sodium salt (300 µg/ml) are added to the assay plates and read at suitable luminescence detection after 1 min incubation at room temperature. The whole HTS was performed in 7 rounds of 30–80 plates each in two months’ time."}, "[2]": {"test_system": "HeLa cells", "test": "HeLa cell proliferation assay (CellTiter Glo)", "assay_type": "cell-based, human", "experimental": "In addition, we tested the 84 compounds in a dose-response fashion on HeLa cells to quantitatively monitor their cytotoxicity potential.\nHeLa cells (CCL-2, ATCC, USA) were cultured in DMEM without phenol red (Thermo, 11880, USA) + 10% FBS + 1X PenStrep + 1X Gln. They were plated in a 384-well plate (Thermo, 4334-11, USA) to a density of 2000 cells per well and let recover for 4 h at 37 °C, 5% CO2 in a humidified atmosphere. After the recovery, compounds were transferred to assay plates as per compound preparation method. Assay plates were then incubated at 37 °C, 5% CO2 in a humidified atmosphere for 72 h. Cell viability was measured by the CellTiTer Glo (Promega, G8080, USA) as per manufacturer instruction."}, "[3]": {"test_system": "P. falciparum NF54 male gametocytes (stage V)", "test": "Male gamete exflagellation assay", "assay_type": "cell-based, Plasmodium falciparum", "conditions": "for Inhibition of male exflagellation at 1 µM: 48 h", "experimental": "The above selected 30 compounds were subjected to a phenotypic male gamete exflagellation assay. This assay measures the viability of male gametocytes by quantitating the final step of maturation into motile microgametes in vitro[24]. This process naturally occurs in the mosquito gut within minutes from the blood meal. The acquisition of time lapse videos of gamete motility in bright field microscopy and the subsequent analysis to count exflagellation centres were performed in an automated HTS format in 384-well plates. The compounds were tested in two independent biological replicates at the concentration of 1 µM. […] The results of this study led to the identification of 16 compounds with anti-exflagellation activity (Fig. 4). […] The standard membrane feeding assay (SMFA) is used to measure the parasite transmission through mosquito. In this assay, mature stage V gametocytes of the P. falciparum strain NF54-hsp70-luc were treated with 1 and 10 µM of the nine selected compounds for 24 h, added with human red blood cells and serum to achieve a haematocrit of 50% and then fed to mosquitoes. Luminescence was analyzed in […] 8 days post-feeding.\nAsexual parasites of the NF54 line, kindly obtained from Elena Levashina’s laboratory (Max Plank Institute for Infection Biology, Berlin, Germany), were seeded at 1% total parasitemia and grown for 16 days changing medium every day until development of stage V gametocytes (about 1–2% of stage V gametocytemia). 100 µl of gametocyte culture was seeded in each well of a 96 well-plate and 100 µl of 2× concentration of compounds or DMSO as control were added to each well to achieve the desired final concentration. Assay plates were incubated for 48 h at 37 °C in 4% CO2, 3% O2, and 93% N2 modified atmosphere. After the incubation period, 100 µl of medium were removed from each well and the other 100 µl were transferred to a black imaging 96 well plate (ibidi) containing 100 µl of complete medium supplemented with 40 µM of xanthurenic acid. After 15 min, exflagellation events were captured by three ten-second videos each well with an Olympus IX83 inverted microscope with a UPLSAPO 10× N.A. 0.75 objective (Olympus, Japan), equipped with a Hamamatsu ORCA-Flash 4.0 V3 camera. Each video was analyzed using the Icy bio-image analysis software (http://icy.bioimageanalysis.org/) to count the number of exflagellation events."}, "[4]": {"test_system": "P. falciparum NF54 hsp86-PpyRE13 asexual stages", "test": "P. falciparum asexual stage assay (pLDH)", "assay_type": "cell-based, Plasmodium falciparum", "conditions": "asexual stages, line NF54 Hsp86 PpYRE13; read-out: NF54 Hsp86 PpYRE13 (IC50 nM)", "experimental": "as §2\nParasite proliferation assays were performed in 384-well plates (Thermo, 4332, USA) with a starting parasitemia of 0.25% at a haematocrit of 2% by quantification of parasite lactate dehydrogenase (pLDH). Compounds or DMSO as control were pre dispensed on plates, from 10 mM DMSO stock solutions, via an acoustic droplet ejection device (ATS-100, EDC Biosystems) to achieve de final desired concentration. Assay plates were incubated for 72 h at 37 °C in 4% CO2, 3% O2, and 93% N2 modified atmosphere. After the incubation period, plates are frozen at −80 °C for two h and then thawed at room temperature for 2 h. Then, 50 µL of the developer solution (70 mM Tris-HCl pH 8.0, 0.5% Tween-20, 100 mM Lithium L-Lactate, 125 µM nitro blue tetrazolium, 2 U/ml diaphorase and 100 µM 3-Acetylpyridine Adenine Dinucleotide) are added to each well and let to react for 10 min. Absorbance was then read at 650 nm by a suitable spectrophotometer."}, "[5]": {"test_system": "P. falciparum NF54 pfs16-GFP-PyLUC gametocytes", "test": "P. falciparum gametocyte luminescence assay (PfLuc), line NF54 pfs16-GFP-PyLUC", "assay_type": "cell-based, Plasmodium falciparum", "conditions": "gametocytes, line NF54 pfs16; read-out: Pf Gametocytes NF54 pfs16 (IC50 nM)", "experimental": "as §1, §2, §3"}, "[6]": {"test_system": "P. falciparum strain NF54-hsp70-luc stage V gametocytes fed to Anopheles stephensi mosquitoes", "test": "whole plant or invertebrate", "assay_type": "in vivo, Plasmodium falciparum", "conditions": "for transmission blocking in SMFA: 24 h treatment; for luminescence signal of individual mosquitoes (SMFA, Fig. 5): one value per mosquito", "experimental": "The above selected 30 compounds were subjected to a phenotypic male gamete exflagellation assay. This assay measures the viability of male gametocytes by quantitating the final step of maturation into motile microgametes in vitro[24]. This process naturally occurs in the mosquito gut within minutes from the blood meal. The acquisition of time lapse videos of gamete motility in bright field microscopy and the subsequent analysis to count exflagellation centres were performed in an automated HTS format in 384-well plates. The compounds were tested in two independent biological replicates at the concentration of 1 µM. […] The standard membrane feeding assay (SMFA) is used to measure the parasite transmission through mosquito. In this assay, mature stage V gametocytes of the P. falciparum strain NF54-hsp70-luc were treated with 1 and 10 µM of the nine selected compounds for 24 h, added with human red blood cells and serum to achieve a haematocrit of 50% and then fed to mosquitoes. Luminescence was analyzed in the mosquito salivary glands 8 days post-feeding.\nSMFA was performed commercially by TropiQ Health Sciences (Nijmegen, The Netherlands). Test samples were diluted in DMSO and then in RPMI medium (Gibco, 51800043) to achieve a final DMSO concentration of 0.1%. Diluted samples were combined with stage V gametocytes from P. falciparum strain NF54-hsp70-luc and incubated for 24 h. Subsequently, human red blood cells and human serum with the sample were added to achieve a haematocrit of 50%. The blood meal was fed to two-day old Anopheles stephensi mosquitoes that were starved the night prior to the blood meal. […] Mosquito infection was analyzed 8 days post-feeding by luminescence measurements of whole mosquitoes as described previously. For each feeder, luminescence intensity was analyzed in 15–24 mosquitoes per feeder (N = 1, n = 15–24). Luminescence background levels were determined from 15–24 uninfected mosquitoes. Controls: vehicle (0.1% DMSO) in duplicate."}, "[7]": {"test_system": "P. falciparum NF54 male gametocytes (stage V)", "test": "Male gamete exflagellation assay", "assay_type": "cell-based, Plasmodium falciparum", "conditions": "48 h"}, "[8]": {"test_system": "P. falciparum 3D7elo1-pfs16-CBG99 gametocytes", "test": "P. falciparum gametocyte luminescence assay (PfLuc), primary HTS line 3D7elo1-pfs16-CBG99", "assay_type": "cell-based, Plasmodium falciparum", "conditions": "10 µM MB, Rep1-Rep2", "excerpt": "In this line, the CBG99 luciferase-coding region (from the click beetle Pyrophorus plagiophthalamus) is integrated into the parasite genome and expressed under the control of the pfs16 gametocyte-specific promoter.\nObtaining an accurate gametocyte synchronization with minimal parasite handling is of paramount importance to establish a robust and reliable HTS assay. To this aim, the timing of addition of N-acetyl glucosamine (NAG), used to clear residual asexual stages after appearance of stage I gametocytes, was optimized. […] Using these cultures, different haematocrit percentages (0.625, 1.25 and 2.5%) and two incubation times (48- and 72 h) were tested to identify the optimal luciferase readout.\nA collection of 119.059 compounds of the CNCCS library was tested on gametocytes of the 3D7elo1-pfs16-CBG99 strain at 10 µM using the protocol described above. […]\nas §3"}}, "note": "Values joined by “and” are separate entries in the source; they are usually repeats but may differ in a detail not shown here. Equal entries are not always repeated.", "data": [{"smiles": "O=S(=O)(NCC1(O)CCOc2ccccc21)c1ccc(Br)s1", "note": "(stereo not drawn) [Compound 84, reference compound]", "values": [{"measurement": "IC50", "setting": "[1]", "result": 29600, "unit": "nM"}, {"measurement": "IC50", "setting": "[2]", "result": "> 32000", "unit": "nM"}, {"measurement": "Inhibition of male exflagellation at 1 µM", "setting": "[3]; Replicate 1", "result": 1.9}, {"measurement": "Inhibition of male exflagellation at 1 µM", "setting": "[3]; Replicate 2", "result": 0}, {"measurement": "Exflagellation @ 1 uM (% of DMSO) 1", "setting": "[3]; 1 uM, replicate 1", "result": "1.90 % of DMSO"}, {"measurement": "Exflagellation @ 1 uM (% of DMSO) 2", "setting": "[3]; 1 uM, replicate 2", "result": "0.00 % of DMSO"}, {"measurement": "IC50", "setting": "[4]", "result": "> 51200", "unit": "nM"}, {"measurement": "IC50", "setting": "[5]", "result": 11300, "unit": "nM"}]}, {"smiles": "CS(=O)(=O)c1ccc(-c2cnc(N)c(-c3ccc(C(F)(F)F)nc3)c2)cc1", "note": "[MMV0048, reference compound]", "values": [{"measurement": "transmission blocking in SMFA", "setting": "[6]; 1 µM", "result": "abolished the parasite transmission"}, {"measurement": "transmission blocking in SMFA", "setting": "[6]; 10 µM", "result": "abolished the parasite transmission"}]}, {"smiles": "CN(C)c1ccc2nc3ccc(=[N+](C)C)cc-3sc2c1", "note": "[MB, methylene blue]", "values": [{"measurement": "Inhibition of male exflagellation at 1 µM", "setting": "[3]; Replicate 1", "result": 2.985}, {"measurement": "Inhibition of male exflagellation at 1 µM", "setting": "[3]; Replicate 2", "result": 1.163}, {"measurement": "Inhibition of male exflagellation at 1 µM", "setting": "[7]; Replicate 3", "result": 5.8}, {"measurement": "Inhibition of male exflagellation at 1 µM", "setting": "[7]; Replicate 4", "result": 7.7}, {"measurement": "Luminescence counts", "setting": "[8]; 48 h, hematocrit 0.625%", "result": "88 RLU and 72 RLU"}, {"measurement": "Luminescence counts", "setting": "[8]; 48 h, hematocrit 2.5%", "result": "208 RLU and 224 RLU"}, {"measurement": "Luminescence counts", "setting": "[8]; 72 h, hematocrit 0.625%", "result": "64 RLU and 56 RLU"}, {"measurement": "Luminescence counts", "setting": "[8]; 72 h, hematocrit 1.25%", "result": "48 RLU and 56 RLU"}, {"measurement": "Luminescence counts", "setting": "[8]; 72 h, hematocrit 2.5%", "result": "80 RLU and 88 RLU"}]}, {"smiles": "CS(=O)(=O)c1ccc(-c2cnc(N)c(-c3ccc(C(F)(F)F)nc3)c2)cc1", "note": "[MMV-048]", "values": [{"measurement": "luminescence signal of individual mosquitoes (SMFA, Fig. 5)", "setting": "[6]; compound at 1 µM", "result": "6 and 9 and 5 and 28 and 32 and 4 and 3 and 8 and 58 and 2 and 20 and 83"}, {"measurement": "luminescence signal of individual mosquitoes (SMFA, Fig. 5)", "setting": "[6]; compound at 10 µM", "result": "6 and 8 and 5 and 3 and 7"}]}]}
